Reference: ChEMBL document CHEMBL1125620, “Synthesis and biological evaluation of a series of substituted N-alkoxyimides and -amides as potential atypical antipsychotic agents” (J Med Chem, 1991)

How the values were obtained:
Mus musculus = experiment: Inhibition of apomorphine induced mouse climbing, administered intraperitoneally; type: functional; conditions: ip
[1] = molecular target: T1, 5-hydroxytryptamine receptor 1A (Rattus norvegicus, UniProt P19327); experiment: Affinity for 5-hydroxytryptamine 1A receptor labeled with [3H]8-OH-DPAT radioligand in hippocampus tissue; type: tissue-based
T1 sequence (P19327 whole entry): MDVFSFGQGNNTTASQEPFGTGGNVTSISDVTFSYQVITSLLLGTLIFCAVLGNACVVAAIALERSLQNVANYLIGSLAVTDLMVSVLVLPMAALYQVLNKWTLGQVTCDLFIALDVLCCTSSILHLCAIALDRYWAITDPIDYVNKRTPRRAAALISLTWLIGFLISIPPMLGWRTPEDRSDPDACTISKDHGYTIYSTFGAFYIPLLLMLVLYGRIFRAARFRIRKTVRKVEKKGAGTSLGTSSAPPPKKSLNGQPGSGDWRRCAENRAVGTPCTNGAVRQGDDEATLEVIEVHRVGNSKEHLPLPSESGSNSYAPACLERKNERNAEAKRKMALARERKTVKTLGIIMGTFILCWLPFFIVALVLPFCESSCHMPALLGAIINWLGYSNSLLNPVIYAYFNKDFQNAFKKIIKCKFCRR

[2] = molecular target: Serotonin 2 (5-HT2) receptor (Rattus norvegicus, UniProt P30994+P08909+P14842); experiment: Compound was measured for affinity at 5-hydroxytryptamine 2 receptor in rat cortical by [3H]spiroperidol displacement.
D(2) dopamine receptor = D(2) dopamine receptor (Rattus norvegicus, UniProt P61169); experiment: Compound was measured for affinity at Dopamine receptor D2 labeled with [3H]spiroperidol radioligand in striatum tissue; type: tissue-based
D(2) dopamine receptor, sequence (P61169 whole entry): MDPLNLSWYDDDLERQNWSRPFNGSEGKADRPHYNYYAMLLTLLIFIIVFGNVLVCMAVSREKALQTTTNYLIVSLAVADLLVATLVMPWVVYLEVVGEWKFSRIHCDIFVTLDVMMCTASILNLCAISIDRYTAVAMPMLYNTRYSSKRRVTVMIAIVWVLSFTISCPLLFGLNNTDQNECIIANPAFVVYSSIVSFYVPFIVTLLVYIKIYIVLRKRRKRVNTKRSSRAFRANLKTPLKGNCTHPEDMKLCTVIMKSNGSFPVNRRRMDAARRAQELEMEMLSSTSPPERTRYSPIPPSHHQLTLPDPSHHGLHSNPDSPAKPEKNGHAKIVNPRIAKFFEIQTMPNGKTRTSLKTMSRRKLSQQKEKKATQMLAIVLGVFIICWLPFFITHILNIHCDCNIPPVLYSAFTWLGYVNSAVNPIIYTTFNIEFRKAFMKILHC

[3] = molecular target: 5-hydroxytryptamine receptor 1B (Rattus norvegicus, UniProt P28564); experiment: compound was measured for affinity against 5-hydroxytryptamine 1B receptor labelled with [3H]5-HT radioligand in striatum tissue; type: tissue-based
5-hydroxytryptamine receptor 1B, sequence (P28564 whole entry): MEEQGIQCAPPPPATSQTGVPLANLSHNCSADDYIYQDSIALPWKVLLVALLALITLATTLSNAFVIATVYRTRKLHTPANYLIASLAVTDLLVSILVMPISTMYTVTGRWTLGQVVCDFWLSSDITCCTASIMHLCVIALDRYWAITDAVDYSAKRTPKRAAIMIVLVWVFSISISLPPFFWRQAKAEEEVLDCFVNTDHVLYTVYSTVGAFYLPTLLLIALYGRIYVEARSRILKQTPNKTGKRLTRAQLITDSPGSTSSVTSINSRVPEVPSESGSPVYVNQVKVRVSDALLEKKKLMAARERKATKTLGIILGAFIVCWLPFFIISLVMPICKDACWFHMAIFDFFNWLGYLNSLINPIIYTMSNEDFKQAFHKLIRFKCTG

[4] = molecular target: T2, Alpha adrenergic receptor 1A and 1B (Rattus norvegicus, UniProt P15823+P43140); experiment: compound was measured as affinity for Alpha-1 adrenergic receptor labeled with [3H]WB-4101 radioligand in whole brain tissue
T2 sequence (P15823 whole entry): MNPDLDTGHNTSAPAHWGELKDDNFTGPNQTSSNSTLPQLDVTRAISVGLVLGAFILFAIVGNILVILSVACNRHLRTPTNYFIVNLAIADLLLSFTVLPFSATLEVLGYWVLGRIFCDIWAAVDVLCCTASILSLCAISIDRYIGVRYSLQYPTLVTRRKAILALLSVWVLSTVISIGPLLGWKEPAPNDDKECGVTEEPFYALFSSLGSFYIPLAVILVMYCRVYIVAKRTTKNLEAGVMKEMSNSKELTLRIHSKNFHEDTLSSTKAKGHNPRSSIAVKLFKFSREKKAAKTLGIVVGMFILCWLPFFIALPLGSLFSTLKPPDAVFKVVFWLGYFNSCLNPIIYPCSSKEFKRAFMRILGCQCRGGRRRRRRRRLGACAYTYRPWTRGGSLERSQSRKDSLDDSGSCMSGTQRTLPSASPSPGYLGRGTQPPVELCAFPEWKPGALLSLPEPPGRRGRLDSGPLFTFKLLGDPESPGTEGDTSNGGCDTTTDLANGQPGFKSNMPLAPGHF
T2 sequence (P43140 whole entry): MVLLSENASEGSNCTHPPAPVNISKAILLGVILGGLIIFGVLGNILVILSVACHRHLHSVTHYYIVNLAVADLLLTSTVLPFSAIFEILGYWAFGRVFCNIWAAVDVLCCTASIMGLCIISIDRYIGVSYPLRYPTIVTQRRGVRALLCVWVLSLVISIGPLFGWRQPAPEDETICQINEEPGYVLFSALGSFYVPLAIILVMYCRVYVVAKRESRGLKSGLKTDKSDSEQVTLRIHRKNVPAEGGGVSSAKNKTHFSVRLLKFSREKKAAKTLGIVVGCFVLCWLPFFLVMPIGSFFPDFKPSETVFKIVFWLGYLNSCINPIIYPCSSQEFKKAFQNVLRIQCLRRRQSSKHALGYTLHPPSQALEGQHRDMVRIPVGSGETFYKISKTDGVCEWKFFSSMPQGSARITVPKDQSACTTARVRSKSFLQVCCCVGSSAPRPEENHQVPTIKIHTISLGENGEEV

D(1A) dopamine receptor = D(1A) dopamine receptor (Rattus norvegicus, UniProt P18901); experiment: compound was measured as affinity for dopamine receptor D1 labeled with [3H]-SCH- 23390 radioligand in striatum tissue; type: tissue-based
D(1A) dopamine receptor, sequence (P18901 whole entry): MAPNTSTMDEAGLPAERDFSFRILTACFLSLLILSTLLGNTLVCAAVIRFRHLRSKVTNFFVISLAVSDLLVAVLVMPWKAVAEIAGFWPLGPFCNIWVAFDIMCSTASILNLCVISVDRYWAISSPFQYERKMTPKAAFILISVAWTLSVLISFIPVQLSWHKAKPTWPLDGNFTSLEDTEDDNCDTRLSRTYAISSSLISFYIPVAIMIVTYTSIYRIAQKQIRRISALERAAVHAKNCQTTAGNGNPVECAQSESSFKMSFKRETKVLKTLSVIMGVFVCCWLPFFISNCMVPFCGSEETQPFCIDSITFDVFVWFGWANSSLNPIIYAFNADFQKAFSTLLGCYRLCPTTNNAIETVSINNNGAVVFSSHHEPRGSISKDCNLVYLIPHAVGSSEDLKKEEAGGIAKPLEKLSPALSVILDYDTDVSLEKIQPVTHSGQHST

Rattus norvegicus [5] = experiment: In vivo activity administered intraperitoneally was determined by pole climb escape failures in rat; type: functional; conditions: ip
Rattus norvegicus [6] = experiment: In vivo activity administered orally was determined by intracranial self stimulation in rat; type: functional; conditions: po
Rattus norvegicus [7] = experiment: In vivo activity was measured by the pole climb avoidance in rat; type: functional
Rattus norvegicus [8] = experiment: In vivo inhibition of apomorphine induced stereotypy in rat by the compound administered intraperitoneally; type: functional; conditions: ip
Rattus norvegicus [9] = experiment: In vivo inhibition of amphetamine induced stereotypy in rat by the compound administered intraperitoneally at […]; type: functional
[10] = molecular target: Sigma non-opioid intracellular receptor 1 (Rattus norvegicus, UniProt Q9R0C9); experiment: compound was measured as affinity for sigma receptor labeled with [3H]-SKF- […] radioligand in slide-mounted slices
Sigma non-opioid intracellular receptor 1, sequence (Q9R0C9 whole entry): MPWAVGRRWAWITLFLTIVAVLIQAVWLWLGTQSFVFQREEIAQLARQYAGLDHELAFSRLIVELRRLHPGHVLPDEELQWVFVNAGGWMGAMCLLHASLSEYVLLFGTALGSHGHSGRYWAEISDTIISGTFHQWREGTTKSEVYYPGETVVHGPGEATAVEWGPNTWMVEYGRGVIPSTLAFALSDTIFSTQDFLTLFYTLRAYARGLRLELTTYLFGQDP

Rattus norvegicus [11] = experiment: In vivo activity administered intraperitoneally was determined by social interaction in rat at 1.0 mg/kg
Rattus norvegicus [12] = experiment: In vivo activity administered intraperitoneally was determined by induction of catalepsy in rat at 30 mg/kg
Rattus norvegicus [13] = experiment: In vivo activity administered intraperitoneally was determined by induction of catalepsy in rat at 40 mg/kg
Rattus norvegicus [14] = experiment: In vivo activity administered intraperitoneally was determined by intracranial self stimulation in rat; type: functional; conditions: ip
Rattus norvegicus [15] = experiment: In vivo activity administered intraperitoneally was determined by pole climb avoidance in rat; type: functional; conditions: ip
Rattus norvegicus [16] = experiment: In vivo activity was measured by the intracranial self stimulation in rat; type: functional
Rattus norvegicus [17] = experiment: In vivo activity administered intraperitoneally was determined by induction of catalepsy in rat; type: functional; conditions: ip
Rattus norvegicus [18] = experiment: In vivo inhibition of amphetamine induced stereotypy in rat by the compound administered intraperitoneally; type: functional; conditions: ip
Rattus norvegicus [19] = experiment: Activity administered intraperitoneally was determined by social interaction of rat at […]; type: functional
Rattus norvegicus [20] = experiment: In vivo activity administered intraperitoneally was determined by induction of catalepsy in rat at […]; type: functional
Rattus norvegicus [21] = experiment: In vivo activity administered intraperitoneally was determined by social interaction of rat at […]; type: functional

Row | IC50 [1] [nM] | IC50 [2] [µM] | Compound | ED50 (Mus musculus) [mg/kg] | other results
1 |  |  | CSc1cccc(N2CCN(CCCON3C(=O)c4ccccc4C3=O)CC2)c1 | > 20 | 
2 | 30 |  | O=C1CC2(CCCC2)CC(=O)N1OCCCN1CCN(c2cccc(C(F)(F)F)c2)CC1 | > 20 | 
3 | 110 | 1.19 | COc1ccccc1N1CCN(CCCON2C(=O)CC3(CCCC3)CC2=O)CC1 | 11 | 
4 | > 20000 |  | O=C1c2ccccc2C(=O)N1OCCCN1CCN(c2nsc3ccccc23)CC1 | > 20 | 
5 |  |  | O=C1c2ccccc2C(=O)N1OCCCN1CCN(c2cccc(Cl)c2)CC1 | > 20 | 
6 | 60 |  | COc1ccccc1N1CCN(CCCON2C(=O)CC3(CCCC3)CC2O)CC1 (stereo unspecified) | > 20 | 
7 |  |  | O=C1c2ccccc2C(=O)N1OCCCN1CCN(c2cccc(C(F)(F)F)c2)CC1 | > 20 | IC50 (D(2) dopamine receptor): > 20 µM
8 |  |  | Cc1ccccc1N1CCN(CCCON2C(=O)c3ccccc3C2=O)CC1 | > 20 | 
9 | 40 |  | O=C1CC2(CCCC2)CC(=O)N1OCCCN1CCN(c2cccc(Cl)c2)CC1 | > 20 | 
10 | 90 | 0.39 | Cc1cccc(N2CCN(CCCON3C(=O)CC4(CCCC4)CC3=O)CC2)c1 | 26.5 | 
11 | 220 |  | O=C1CC2(CCCC2)CC(=O)N1OCCCN1CCN(c2ccccc2Cl)CC1 | > 20 | 
12 | 6900 |  | COc1ccccc1N1CCN(CCCON2C(=O)c3ccccc3C2=O)CC1 | > 20 | IC50 (D(2) dopamine receptor): > 20 µM
13 | 50 |  | CSc1cccc(N2CCN(CCCON3C(=O)CC4(CCCC4)CC3=O)CC2)c1 | > 20 | 
14 |  |  | Cc1cccc(N2CCN(CCCON3C(=O)c4ccccc4C3=O)CC2)c1 | > 20 | 
15 | 970 | 0.24 | O=C1CC2(CCCC2)CC(=O)N1OCCN1CCN(c2nsc3ccccc23)CC1 | > 20 | 
16 | 30 | 0.01 | O=C1CC2(CCCC2)CCN1OCCCN1CCN(c2nsc3ccccc23)CC1 | 17.8 | 
17 | 70 | 2.7 | COc1ccccc1N1CCN(CCCON2CCC3(CCCC3)CC2=O)CC1 | > 20 | 
18 |  |  | O=C1CC2(CCCC2)CC(=O)N1OCCN1CCN(c2ncccn2)CC1 | > 20 | 
19 | 380 |  | O=C1CC2(CCCC2)CC(=O)N1OCCCN1CCN(c2ncccn2)CC1 | > 20 | 
20 | 80 | 0.01 | O=C1CC2(CCCC2)CC(O)N1OCCCN1CCN(c2nsc3ccccc23)CC1 (stereo unspecified) | > 20 | 
21 |  |  | O=C1c2ccccc2C(=O)N1OCCCN1CCN(c2ccc3ccccc3n2)CC1 | > 20 | 
22 | 110 | 0.02 | O=C1CC2(CCCC2)CC(=O)N1OCCCN1CCN(c2nsc3ccccc23)CC1 | 5.7 | IC50 [3]: 5.53 µM; IC50 [4]: 0.01 µM; IC50 (D(1A) dopamine receptor): 6.6 µM; ED50 (Rattus norvegicus [5]): > 20 mg/kg; ED50 (Rattus norvegicus [6]): 12.5 mg/kg; ED50 (Rattus norvegicus [7]): 2.5 mg/kg; ED50 (Rattus norvegicus [8]): 35.4 mg/kg; Inhibition (Rattus norvegicus [9]): 17%; IC50 [10]: 1100 nM; Increase (Rattus norvegicus [11]): 24%; Catalepsy (Rattus norvegicus [12]): 33%; Catalepsy (Rattus norvegicus [13]): 83%
23 | 370 | 3.2 | COc1ccccc1N1CCN(CCON2C(=O)CC3(CCCC3)CC2=O)CC1 | > 20 | 
24 | 2200 | 8.1 | O=C1CC2(CCCC2)CC(=O)N1OCCCN1CCN(c2nc3ccccc3s2)CC1 | > 20 | 
25 | 170 | 0.25 | Cc1cccc(N2CCN(CCCON3C(=O)CC4(CCCC4)CC3=O)CC2)c1C | 39.7 | 
26 |  |  | O=C1CC2(CCCC2)CC(=O)N1OCCCN1CCN(c2ccc3ccccc3n2)CC1 | > 20 | 
27 |  |  | CN1CCN(C2=Nc3cc(Cl)ccc3Nc3ccccc32)CC1 [CLOZAPINE] | 8.1 | ED50 (Rattus norvegicus [5]): > 80 mg/kg; ED50 (Rattus norvegicus [14]): 9.1 mg/kg; ED50 (Rattus norvegicus [15]): 13.1 mg/kg
28 |  |  | O=C(CCCN1CCC(O)(c2ccc(Cl)cc2)CC1)c1ccc(F)cc1 [HALOPERIDOL] | 0.25 | ED50 (Rattus norvegicus [5]): 7.3 mg/kg; ED50 (Rattus norvegicus [16]): 0.077 mg/kg; ED50 (Rattus norvegicus [17]): 0.659 mg/kg; ED50 (Rattus norvegicus [15]): 0.53 mg/kg; ED50 (Rattus norvegicus [18]): 0.215 mg/kg; ED50 (Rattus norvegicus [8]): 0.31 mg/kg
29 |  |  | Cc1nc2n(c(=O)c1CCN1CCC(c3noc4cc(F)ccc34)CC1)CCCC2 [RISPERIDONE] | 0.06 | ED50 (Rattus norvegicus [5]): 1.3 mg/kg; ED50 (Rattus norvegicus [17]): 5.7 mg/kg; ED50 (Rattus norvegicus [14]): 0.13 mg/kg; ED50 (Rattus norvegicus [15]): 0.48 mg/kg; ED50 (Rattus norvegicus [8]): 3.2 mg/kg; Inhibition (Rattus norvegicus [19]): 27%
30 |  |  | O=C1CC2(CCCC2)CC(=O)N1CCCCN1CCN(c2nsc3ccccc23)CC1 [TIOSPIRONE] | 0.84 | ED50 (Rattus norvegicus [5]): 2.77 mg/kg; ED50 (Rattus norvegicus [14]): 0.124 mg/kg; ED50 (Rattus norvegicus [15]): 0.93 mg/kg; ED50 (Rattus norvegicus [8]): 3.7 mg/kg; Inhibition (Rattus norvegicus [20]): 67%; Inhibition (Rattus norvegicus [21]): 34%

Row | Compound | IC50 [1] [nM] | IC50 [2] [µM] | ED50 (Mus musculus) [mg/kg] | other results
31 | O=C1CC2(CCCC2)CC(=O)N1OCCCN1CCN(C2=NS(=O)(=O)c3ccccc32)CC1 | > 20000 | > 20 | > 20 | 
